Measured values reported in ChEMBL document CHEMBL5096194, “Development of Alectinib-Based PROTACs as Novel Potent Degraders of Anaplastic Lymphoma Kinase (ALK)” (J Med Chem, 2021).
pIC50: −log10 of the molar value. Activity calls are given as the source filed them. The calls are words filed in the database; no cut-off is given here.

Experiments:
NCI-H3122 = experiment: Antiproliferative activity against ALK-positive human NCI-H3122 cells assessed as inhibition of cell proliferation measured after 72 hrs by MTT assay; format: functional, cell-based; details: NCI-H3122, 72 h
KARPAS-299 [1] = experiment: Antiproliferative activity against ALK-positive human KARPAS-299 cells assessed as inhibition of cell proliferation measured after 72 hrs by MTT assay; format: functional, cell-based; details: KARPAS-299, 72 h
[2] = target: T1, Protein cereblon/ALK tyrosine kinase receptor/Echinoderm microtubule-associated protein-like 4 (Homo sapiens) (UniProt Q9UM73+Q9HC35+Q96SW2); experiment: Protac activity at CRBN/EML4-ALK in human NCI-H3122 cells assessed as induction of EML4-ALK fusion protein degradation at 1 uM incubated for 16 hrs by Western blot analysis relative to control; format: cell-based
T1 sequence (Q96SW2 whole entry partner, the tested form may be a part): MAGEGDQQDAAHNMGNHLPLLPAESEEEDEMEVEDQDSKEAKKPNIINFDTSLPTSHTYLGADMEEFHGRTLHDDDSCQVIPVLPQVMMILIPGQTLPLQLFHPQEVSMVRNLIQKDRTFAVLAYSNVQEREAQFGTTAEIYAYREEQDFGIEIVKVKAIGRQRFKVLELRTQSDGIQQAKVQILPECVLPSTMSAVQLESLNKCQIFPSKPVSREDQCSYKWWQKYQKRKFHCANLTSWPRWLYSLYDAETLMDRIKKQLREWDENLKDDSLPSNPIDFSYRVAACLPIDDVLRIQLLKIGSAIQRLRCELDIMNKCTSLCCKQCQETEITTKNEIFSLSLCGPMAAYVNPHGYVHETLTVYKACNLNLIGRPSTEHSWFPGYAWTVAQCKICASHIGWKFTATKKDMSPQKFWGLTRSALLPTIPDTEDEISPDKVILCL
T1 sequence (Q9HC35 whole entry partner, the tested form may be a part): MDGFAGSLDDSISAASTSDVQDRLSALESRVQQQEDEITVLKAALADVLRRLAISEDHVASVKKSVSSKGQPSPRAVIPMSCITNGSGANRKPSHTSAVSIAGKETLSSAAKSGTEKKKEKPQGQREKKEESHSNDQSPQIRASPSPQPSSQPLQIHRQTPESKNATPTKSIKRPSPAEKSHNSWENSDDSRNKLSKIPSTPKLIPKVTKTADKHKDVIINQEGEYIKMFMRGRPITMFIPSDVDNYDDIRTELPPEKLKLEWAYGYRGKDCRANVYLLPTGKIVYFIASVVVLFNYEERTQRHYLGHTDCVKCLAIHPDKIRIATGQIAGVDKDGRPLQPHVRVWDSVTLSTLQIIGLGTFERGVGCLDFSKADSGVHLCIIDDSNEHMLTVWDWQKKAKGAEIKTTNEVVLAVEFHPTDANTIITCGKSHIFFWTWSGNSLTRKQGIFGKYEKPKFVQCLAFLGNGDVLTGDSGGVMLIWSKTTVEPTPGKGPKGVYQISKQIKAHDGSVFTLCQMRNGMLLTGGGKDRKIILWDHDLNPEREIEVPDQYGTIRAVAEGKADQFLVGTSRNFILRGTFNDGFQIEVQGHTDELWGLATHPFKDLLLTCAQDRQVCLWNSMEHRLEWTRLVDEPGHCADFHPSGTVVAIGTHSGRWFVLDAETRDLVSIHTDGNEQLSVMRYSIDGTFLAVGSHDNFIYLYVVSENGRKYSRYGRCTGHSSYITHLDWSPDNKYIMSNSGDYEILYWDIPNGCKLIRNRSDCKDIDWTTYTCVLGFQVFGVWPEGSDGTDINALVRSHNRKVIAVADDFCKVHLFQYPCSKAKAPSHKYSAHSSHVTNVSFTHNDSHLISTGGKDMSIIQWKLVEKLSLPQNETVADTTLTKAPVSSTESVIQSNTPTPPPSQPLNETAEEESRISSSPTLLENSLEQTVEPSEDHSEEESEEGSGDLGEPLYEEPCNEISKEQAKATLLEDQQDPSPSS
T1 sequence (Q9UM73 19-1620 limits assumed): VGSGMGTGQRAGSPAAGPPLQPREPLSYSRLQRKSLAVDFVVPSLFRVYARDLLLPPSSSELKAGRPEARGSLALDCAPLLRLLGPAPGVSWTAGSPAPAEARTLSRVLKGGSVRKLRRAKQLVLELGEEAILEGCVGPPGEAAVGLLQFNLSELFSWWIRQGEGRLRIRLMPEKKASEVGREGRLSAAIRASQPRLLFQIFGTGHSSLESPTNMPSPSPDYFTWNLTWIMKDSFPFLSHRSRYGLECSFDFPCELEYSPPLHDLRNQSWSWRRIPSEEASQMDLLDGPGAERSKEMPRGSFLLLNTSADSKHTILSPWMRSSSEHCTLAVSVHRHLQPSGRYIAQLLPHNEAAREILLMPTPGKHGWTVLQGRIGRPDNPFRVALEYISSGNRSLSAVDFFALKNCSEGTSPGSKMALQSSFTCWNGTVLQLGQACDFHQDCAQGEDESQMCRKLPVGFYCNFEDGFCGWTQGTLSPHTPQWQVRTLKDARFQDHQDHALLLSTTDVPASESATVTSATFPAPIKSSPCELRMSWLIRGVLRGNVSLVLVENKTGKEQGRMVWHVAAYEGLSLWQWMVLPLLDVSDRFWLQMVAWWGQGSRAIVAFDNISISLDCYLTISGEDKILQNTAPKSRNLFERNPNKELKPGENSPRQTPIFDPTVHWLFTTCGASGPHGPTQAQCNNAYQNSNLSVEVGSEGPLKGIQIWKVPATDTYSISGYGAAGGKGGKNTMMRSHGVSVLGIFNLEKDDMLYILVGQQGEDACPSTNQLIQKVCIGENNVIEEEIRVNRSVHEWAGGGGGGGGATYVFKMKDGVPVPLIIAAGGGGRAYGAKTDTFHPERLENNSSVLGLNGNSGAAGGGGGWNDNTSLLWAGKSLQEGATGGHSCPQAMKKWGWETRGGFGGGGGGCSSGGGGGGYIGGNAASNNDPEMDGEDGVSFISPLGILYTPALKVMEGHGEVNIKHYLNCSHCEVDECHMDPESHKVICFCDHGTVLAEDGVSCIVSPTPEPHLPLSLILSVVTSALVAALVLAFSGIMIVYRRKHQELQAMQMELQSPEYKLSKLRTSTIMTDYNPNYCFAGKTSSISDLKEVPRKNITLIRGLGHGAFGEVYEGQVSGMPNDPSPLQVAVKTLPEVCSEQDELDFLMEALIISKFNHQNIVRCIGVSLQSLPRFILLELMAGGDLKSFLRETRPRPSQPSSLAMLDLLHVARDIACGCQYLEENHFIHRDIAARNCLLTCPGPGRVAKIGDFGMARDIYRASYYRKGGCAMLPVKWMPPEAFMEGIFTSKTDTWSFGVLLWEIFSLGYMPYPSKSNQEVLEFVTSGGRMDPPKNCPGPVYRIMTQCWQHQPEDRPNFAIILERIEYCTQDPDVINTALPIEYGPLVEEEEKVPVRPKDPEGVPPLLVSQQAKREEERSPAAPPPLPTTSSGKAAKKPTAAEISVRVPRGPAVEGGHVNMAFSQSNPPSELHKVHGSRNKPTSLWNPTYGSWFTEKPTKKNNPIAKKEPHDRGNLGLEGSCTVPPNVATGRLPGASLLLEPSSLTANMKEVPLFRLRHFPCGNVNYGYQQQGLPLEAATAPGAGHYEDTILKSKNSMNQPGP

[3] = target: T1, Protein cereblon/ALK tyrosine kinase receptor/Echinoderm microtubule-associated protein-like 4 (Homo sapiens); experiment: Protac activity at CRBN/EML4-ALK in human NCI-H3122 cells assessed as induction of EML4-ALK fusion protein degradation at 0.1 uM incubated for 16 hrs by Western blot analysis relative to control; format: cell-based
[4] = target: T2, Protein cereblon/ALK tyrosine kinase receptor/Nucleophosmin (Homo sapiens) (UniProt Q9UM73+P06748+Q96SW2); experiment: Protac activity at CRBN/NPM-ALK in human KARPAS-299 cells assessed as induction of NPM-ALK fusion protein degradation at 1 uM incubated for 24 hrs by Western blot analysis relative to control; format: cell-based
T2 sequence (P06748 whole entry partner, the tested form may be a part): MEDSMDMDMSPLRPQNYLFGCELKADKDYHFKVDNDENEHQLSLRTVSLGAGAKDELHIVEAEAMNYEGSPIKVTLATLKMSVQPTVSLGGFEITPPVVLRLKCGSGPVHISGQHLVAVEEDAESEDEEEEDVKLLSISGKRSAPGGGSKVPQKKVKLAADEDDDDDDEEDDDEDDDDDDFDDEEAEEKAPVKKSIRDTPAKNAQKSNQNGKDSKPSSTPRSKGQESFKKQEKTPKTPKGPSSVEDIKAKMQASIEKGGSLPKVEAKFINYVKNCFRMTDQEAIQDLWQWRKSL
T2 sequence (Q96SW2 whole entry partner, the tested form may be a part): as the sequence (Q96SW2 whole entry partner, the tested form may be a part) above
T2 sequence (Q9UM73 19-1620 limits assumed): as the sequence (Q9UM73 19-1620 limits assumed) above

[5] = target: T2, Protein cereblon/ALK tyrosine kinase receptor/Nucleophosmin (Homo sapiens); experiment: Protac activity at CRBN/NPM-ALK in human KARPAS-299 cells assessed as induction of NPM-ALK fusion protein degradation at 0.1 uM incubated for 24 hrs by Western blot analysis relative to control; format: cell-based
[6] = target: T3, ALK tyrosine kinase receptor (Homo sapiens, UniProt Q9UM73); experiment: Inhibition of ALK phosphorylation in human KARPAS-299 cells at 0.01 to 1 uM measured after 24 hrs by Western blot analysis; format: cell-based; details: dose 0.01-1 µM
Target sequence in this assay (Q9UM73 19-1620 limits assumed): as above

[7] = target: Signal transducer and activator of transcription 3 (Homo sapiens) (UniProt P40763); experiment: Inhibition of STAT3 phosphorylation in human KARPAS-299 cells as 0.01 to 1 uM measured after 24 hrs by Western blot analysis; format: cell-based; details: dose 0.01-1 µM
Signal transducer and activator of transcription 3 (Homo sapiens), sequence (P40763 whole entry): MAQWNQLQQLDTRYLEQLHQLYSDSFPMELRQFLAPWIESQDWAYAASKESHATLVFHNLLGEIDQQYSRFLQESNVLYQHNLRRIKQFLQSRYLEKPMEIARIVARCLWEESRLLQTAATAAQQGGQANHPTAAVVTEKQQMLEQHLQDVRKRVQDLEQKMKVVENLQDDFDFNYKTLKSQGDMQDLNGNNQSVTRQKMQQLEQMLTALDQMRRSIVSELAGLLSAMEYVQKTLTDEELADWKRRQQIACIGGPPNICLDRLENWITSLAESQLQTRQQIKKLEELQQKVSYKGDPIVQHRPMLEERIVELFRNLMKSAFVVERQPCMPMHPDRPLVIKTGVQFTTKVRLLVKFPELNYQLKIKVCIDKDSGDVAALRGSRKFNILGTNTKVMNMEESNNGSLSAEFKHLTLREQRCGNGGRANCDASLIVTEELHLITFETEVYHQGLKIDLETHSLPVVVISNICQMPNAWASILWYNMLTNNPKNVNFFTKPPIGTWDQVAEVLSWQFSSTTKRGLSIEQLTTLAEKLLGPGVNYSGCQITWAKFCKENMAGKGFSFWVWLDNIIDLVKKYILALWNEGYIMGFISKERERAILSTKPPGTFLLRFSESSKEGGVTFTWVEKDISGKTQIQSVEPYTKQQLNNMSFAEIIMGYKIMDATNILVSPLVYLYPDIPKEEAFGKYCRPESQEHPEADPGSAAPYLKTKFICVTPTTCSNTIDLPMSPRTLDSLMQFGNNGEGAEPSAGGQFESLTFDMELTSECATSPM

[8] = target: T3, ALK tyrosine kinase receptor
BaF3 [9] = experiment: Antiproliferative activity against mouse BaF3 cells assessed as cell viability at 1 uM incubated for 72 hrs by Celltitre-Glo assay relative to control; format: functional; details: read-out: Activity
BaF3 [10] = experiment: Antiproliferative activity against mouse BaF3 cells expressing wild type EML-ALK assessed as cell viability at 1 uM incubated for 72 hrs by Celltitre-Glo assay relative to control; format: functional; details: read-out: Activity
BaF3 [11] = experiment: Antiproliferative activity against crizotinib-resistant mouse BaF3 cells expressing EML-ALK L1152R mutant assessed as cell viability at 1 uM incubated for 72 hrs by Celltitre-Glo assay relative to control; format: functional; details: read-out: Activity
BaF3 [12] = experiment: Antiproliferative activity against crizotinib-resistant mouse BaF3 cells expressing EML-ALK G1202R mutant assessed as cell viability at 1 uM incubated for 72 hrs by Celltitre-Glo assay relative to control; format: functional; details: read-out: Activity
BaF3 [13] = experiment: Antiproliferative activity against crizotinib-resistant mouse BaF3 cells expressing EML-ALK L1196M mutant assessed as cell viability at 1 uM incubated for 72 hrs by Celltitre-Glo assay relative to control; format: functional; details: read-out: Activity
KARPAS-299 [14] = experiment: Antiproliferative activity against human KARPAS-299 cells assessed as inhibition of cell growth measured after 72 hrs by MTT assay; format: functional, cell-based; details: KARPAS-299, 72 h
KARPAS-299 [15] = experiment: Antitumor activity against human KARPAS-299 cells xenografted in NCG mouse assessed as reduction in tumor volume at 20 mg/kg, po administered once every day for 3 weeks and measured every 3 days; format: functional, organism-based
KARPAS-299 [16] = experiment: Antitumor activity against human KARPAS-299 cells xenografted in NCG mouse assessed as reduction in tumor weight at 20 mg/kg, po administered once every day for 3 weeks and measured every 3 days; format: functional, organism-based
KARPAS-299 [17] = experiment: Antitumor activity against human KARPAS-299 cells xenografted in NCG mouse assessed as tumor growth inhibition at 20 mg/kg, po administered once every day for 3 weeks and measured every 3 days relative to control; format: functional; details: KARPAS-299, 504 h, read-out: TGI
[18] = Toxicity in NCG mouse xenografted with human KARPAS-299 cells assessed as body weight loss at 20 mg/kg, po administered once every day for 3 weeks; format: organism-based; details: in vivo, 504 h
[19] = Toxicity in NCG mouse xenografted with human KARPAS-299 cells assessed as heart damage at 20 mg/kg, po administered once every day for 3 weeks by H & E staining based analysis; format: organism-based; details: in vivo, 504 h
[20] = Toxicity in NCG mouse xenografted with human KARPAS-299 cells assessed as liver damage at 20 mg/kg, po administered once every day for 3 weeks by H and E staining based analysis; format: organism-based; details: in vivo, 504 h
[21] = Toxicity in NCG mouse xenografted with human KARPAS-299 cells assessed as spleen damage at 20 mg/kg, po administered once every day for 3 weeks by H and E staining based analysis; format: organism-based; details: in vivo, 504 h
[22] = Toxicity in NCG mouse xenografted with human KARPAS-299 cells assessed as lung damage at 20 mg/kg, po administered once every day for 3 weeks by H and E staining based analysis; format: organism-based; details: in vivo, 504 h
[23] = Toxicity in NCG mouse xenografted with human KARPAS-299 cells assessed as kidney damage at 20 mg/kg, po administered once every day for 3 weeks by H and E staining based analysis; format: organism-based; details: in vivo, 504 h
[24] = target: Leukocyte tyrosine kinase receptor (Homo sapiens) (UniProt P29376); experiment: Inhibition of LTK (unknown origin) at 10 nM relative to control
Leukocyte tyrosine kinase receptor (Homo sapiens), sequence (P29376 whole entry): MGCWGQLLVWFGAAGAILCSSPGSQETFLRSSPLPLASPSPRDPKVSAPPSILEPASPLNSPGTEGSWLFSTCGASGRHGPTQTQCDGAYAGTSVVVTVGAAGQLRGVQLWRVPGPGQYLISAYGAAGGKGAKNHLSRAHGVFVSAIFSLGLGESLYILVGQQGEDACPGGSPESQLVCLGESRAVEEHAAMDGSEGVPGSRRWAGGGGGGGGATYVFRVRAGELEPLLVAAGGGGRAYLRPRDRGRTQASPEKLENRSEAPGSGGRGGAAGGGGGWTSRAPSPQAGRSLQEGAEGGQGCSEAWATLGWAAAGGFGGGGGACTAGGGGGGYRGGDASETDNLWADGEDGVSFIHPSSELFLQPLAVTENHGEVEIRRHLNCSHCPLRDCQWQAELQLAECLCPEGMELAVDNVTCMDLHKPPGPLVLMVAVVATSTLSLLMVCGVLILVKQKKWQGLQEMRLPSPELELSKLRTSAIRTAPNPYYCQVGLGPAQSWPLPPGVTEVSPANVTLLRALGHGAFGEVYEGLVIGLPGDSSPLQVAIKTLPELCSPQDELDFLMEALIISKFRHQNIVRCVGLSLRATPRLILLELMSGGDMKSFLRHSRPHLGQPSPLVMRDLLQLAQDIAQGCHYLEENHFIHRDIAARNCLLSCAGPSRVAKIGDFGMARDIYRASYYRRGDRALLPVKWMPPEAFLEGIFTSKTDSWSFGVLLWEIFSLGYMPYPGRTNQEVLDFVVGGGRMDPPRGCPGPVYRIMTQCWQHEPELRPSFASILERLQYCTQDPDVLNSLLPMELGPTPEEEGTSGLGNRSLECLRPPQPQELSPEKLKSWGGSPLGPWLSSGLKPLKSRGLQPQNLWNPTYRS

Compound | pIC50 (NCI-H3122) | pIC50 (KARPAS-299 [1]) | Activity [2] | Activity [3] | Activity [4] | Activity [5] | inhibition [6] | inhibition [7] | viability at 1 µM (BaF3 [10]) | viability at 1 µM (BaF3 [11]) | viability at 1 µM (BaF3 [12]) | viability at 1 µM (BaF3 [13]) | also measured
CCc1cc2c(cc1N1CCC(N3CCN(C(=O)CNc4cccc5c4C(=O)N(C4CCC(=O)NC4=O)C5=O)CC3)CC1)C(C)(C)c1[nH]c3cc(C#N)ccc3c1C2=O (stereo not drawn) | 6.97 | 6.97 | 96.9% | 77.3% | 94.3% | 72.8% | Active | Active | – | – | – | – | –
CCc1cc2c(cc1N1CCN(c3cccc4c3C(=O)N(C3CCC(=O)NC3=O)C4=O)CC1)C(C)(C)c1[nH]c3cc(C#N)ccc3c1C2=O (stereo not drawn) | 6.73 | 7.00 | 50.2% | 24.3% | 29.9% | – | – | – | – | – | – | – | –
CCc1cc2c(cc1N1CCNCC1)C(C)(C)c1[nH]c3cc(C#N)ccc3c1C2=O | 7.42 | 7.34 | – | – | – | – | – | – | 0.2% | 0% | 0.5% | 0.1% | pIC50 [8]: 6.49; viability at 1 µM (BaF3 [9]): 74%
CCc1cc2c(cc1N1CCC(N3CCNCC3)CC1)C(C)(C)c1[nH]c3cc(C#N)ccc3c1C2=O | 7.40 | 7.30 | – | – | – | – | – | – | 0.2% | 0.1% | 0.3% | 0.1% | pIC50 [8]: 6.54
CCc1cc2c(cc1N1CCC(N3CCN(CC(=O)NCCCCCCNc4cccc5c4C(=O)N(C4CCC(=O)NC4=O)C5=O)CC3)CC1)C(C)(C)c1[nH]c3cc(C#N)ccc3c1C2=O (stereo not drawn) | 6.93 | 6.92 | 77.3% | 24.5% | – | – | – | – | – | – | – | – | –
CCc1cc2c(cc1N1CCN(CC(=O)NCCCCCCNc3cccc4c3C(=O)N(C3CCC(=O)NC3=O)C4=O)CC1)C(C)(C)c1[nH]c3cc(C#N)ccc3c1C2=O (stereo not drawn) | 6.94 | 6.94 | 75.8% | 51.3% | 69.8% | 66.5% | Active | Active | – | – | – | – | –
Nc1cccc2c1C(=O)N(C1CCC(=O)NC1=O)C2=O (stereo not drawn) [POMALIDOMIDE] | – | – | – | – | – | – | – | – | – | – | – | – | pIC50 (KARPAS-299 [14]): < 5.00
CCc1cc2c(cc1N1CCC(N3CCN(c4cccc5c4C(=O)N(C4CCC(=O)NC4=O)C5=O)CC3)CC1)C(C)(C)c1[nH]c3cc(C#N)ccc3c1C2=O (stereo not drawn) | 6.21 | 6.19 | 50.6% | – | – | – | – | – | – | – | – | – | –
CCc1cc2c(cc1N1CCN(C(=O)CCCCCNc3cccc4c3C(=O)N(C3CCC(=O)NC3=O)C4=O)CC1)C(C)(C)c1[nH]c3cc(C#N)ccc3c1C2=O (stereo not drawn) | 6.57 | 6.61 | – | – | 71.6% | 55.1% | Active | Active | – | – | – | – | –
CCc1cc2c(cc1N1CCN(CC(=O)NCCCCNc3cccc4c3C(=O)N(C3CCC(=O)NC3=O)C4=O)CC1)C(C)(C)c1[nH]c3cc(C#N)ccc3c1C2=O (stereo not drawn) | 7.11 | 7.01 | 75.7% | 38.3% | 76% | 56.5% | Active | Active | 0.1% | 0% | 76.1% | 4.8% | –
CCc1cc2c(cc1N1CCC(N3CCN(CC(=O)NCCNc4cccc5c4C(=O)N(C4CCC(=O)NC4=O)C5=O)CC3)CC1)C(C)(C)c1[nH]c3cc(C#N)ccc3c1C2=O (stereo not drawn) | 6.92 | 6.95 | 91% | 47.8% | – | – | – | – | – | – | – | – | –
CCc1cc2c(cc1N1CCN(C(=O)CCCNc3cccc4c3C(=O)N(C3CCC(=O)NC3=O)C4=O)CC1)C(C)(C)c1[nH]c3cc(C#N)ccc3c1C2=O (stereo not drawn) | 7.04 | 7.18 | – | – | 85.9% | 77.4% | Active | Active | – | – | – | – | –
CCc1cc2c(cc1N1CCN(CC(=O)NCCNc3cccc4c3C(=O)N(C3CCC(=O)NC3=O)C4=O)CC1)C(C)(C)c1[nH]c3cc(C#N)ccc3c1C2=O (stereo not drawn) | 6.92 | 6.97 | 81.8% | 74.4% | 57.8% | 68.3% | Active | Active | – | – | – | – | –
CCc1cc2c(cc1N1CCN(C(=O)CNc3cccc4c3C(=O)N(C3CCC(=O)N(C)C3=O)C4=O)CC1)C(C)(C)c1[nH]c3cc(C#N)ccc3c1C2=O (stereo not drawn) | 6.57 | 6.56 | – | – | – | – | – | – | – | – | – | – | pIC50 [8]: 4.51
CCc1cc2c(cc1N1CCC(N3CCN(CC(=O)NCCCCNc4cccc5c4C(=O)N(C4CCC(=O)NC4=O)C5=O)CC3)CC1)C(C)(C)c1[nH]c3cc(C#N)ccc3c1C2=O (stereo not drawn) | 7.02 | 6.92 | 87% | 49.9% | – | – | – | – | 0.1% | 0.1% | 70.9% | 3.6% | –
CCc1cc2c(cc1N1CCC(N3CCOCC3)CC1)C(C)(C)c1[nH]c3cc(C#N)ccc3c1C2=O [ALECTINIB] | 7.35 | 7.33 | – | – | – | – | – | – | 0.1% | 0% | 73.3% | 1.9% | Activity (KARPAS-299 [15]): Active; Activity (KARPAS-299 [16]): Active; inhibition in vivo at 20 mg/kg (KARPAS-299 [17]): 63.8%; Activity [18]: Non-Toxic; Activity [19]: Non-Toxic; Activity [20]: Non-Toxic; Activity [21]: Non-Toxic; Activity [22]: Non-Toxic; Activity [23]: Non-Toxic; viability at 1 µM (BaF3 [9]): 100%; inhibition [24]: > 50%
